Data reported in patent US11202792B2, “CD99 inhibitors and their uses” (GEORGETOWN UNIVERSITY, priority 2016, dated 2021).

Legend:
[1] = test system: TC-71 and RD-ES cell lines; experiment: Dose-dependent cytotoxicity assay in ES cell lines; assay type: cell-based, human; details: dose-response at 1, 3, 10 and 30 μmol/L in TC-71 and RD-ES
Method: The plate was installed into the RTCA system, and the electrical impedance (represented as cell index) was measured every 10 min.
The primary screen was based on a direct binding assay using surface plasmon resonance (SPR) technology with purified extracellular domain of CD99 (CD99-ECD) protein that was immobilized on a neutravidin-coated sensor chip. […] A negative control protein was used in order to eliminate non-specific binders. […] Dose-response studies were performed with 2 compounds at 1, 3, 10 and 30 μmol/L concentration in ES cell lines.

[2] = molecular target: T1, recombinant human full-length CD99 (Homo sapiens, UniProt P14209); experiment: SPR binding kinetics, recombinant human full-length CD99 (Biacore T200); details: full-length CD99 produced in HEK293 cells, immobilized by amine coupling
T1 construct: Purified recombinant human full-length CD99 produced in HEK293 cells was purchased from Origene; purchased Origene #TP304056; host or cells: HEK293
T1 sequence (P14209 23-185): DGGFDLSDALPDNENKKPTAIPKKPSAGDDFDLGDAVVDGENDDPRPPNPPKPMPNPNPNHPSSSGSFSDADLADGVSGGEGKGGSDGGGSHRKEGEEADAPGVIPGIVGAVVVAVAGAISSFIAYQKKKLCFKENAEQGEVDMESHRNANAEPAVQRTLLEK
Method: The initial binding screening of the NCI/DTP chemical libraries was performed on a Biacore T200 instrument at room temperature using a neutravidin-coated CM5 chip (GE Healthcare Bio-Sciences) coupled with biotinylated CD99-ECD on one flow cell at levels of ˜3,000 response units (RU). A negative control protein, Ly6k was immobilized on another flow cell of the same chip (˜11,000 RU), and the first flow cell was left empty for reference subtraction due to nonspecific binding. Analytes were diluted in HBS—P buffer [10 mmol/L HEPES, pH 7.4, 150 mmol/L NaCl, % 0.05 (v/v) surfactant P20], and were injected individually over all flow cells. The running buffer contained appropriate concentrations of DMSO in HBS—P to match the DMSO level of the samples. Kinetic studies for antibody- or compound-CD99 interactions were performed in a Biacore T200 instrument. Purified recombinant human full-length CD99 produced in HEK293 cells was purchased from Origene (Rockville, Md.) (#TP304056). The recombinant human full-length CD99 was immobilized on a CM5 sensor chip by the amine-coupling method in sodium acetate buffer, pH 4.0 (˜10,000 RU). The first flow cell was left empty for background signal subtraction. Kinetic characterization of the interactions was done by injecting increasing concentrations of analytes as indicated over CD99-captured and control surface. KD (equilibrium dissociation constant) values were obtained using BiaEvaluation software (version 1.0) (Biacore) (GE Healthcare). All kinetic experiments were conducted in HBS—P buffer, which contained 1% (v/v) DMSO in case of compounds.

[3] = molecular target: T2, CD99-ECD (extracellular domain of human CD99) (Homo sapiens, UniProt P14209); experiment: SPR binding, CD99-ECD purified from bacteria
T2 construct: the extracellular domain (Asp23-Asp122) of human CD99; made in house; host or cells: Escherichia coli BL21 (DE3)
T2 sequence (P14209 23-122): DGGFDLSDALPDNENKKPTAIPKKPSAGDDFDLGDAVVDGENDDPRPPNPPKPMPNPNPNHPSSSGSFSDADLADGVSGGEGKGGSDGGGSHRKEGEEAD
Excerpt: The Champion™ pET104 BioEase™ Gateway® Expression System (Invitrogen (Carlsbad, Calif.)) was used to produce CD99-ECD fused with a N-terminal biotin tag, as directed by the manufacturer's instructions. Briefly, the DNA sequence encoding the extracellular domain (Asp23-Asp122) of human CD99 was amplified by PCR using pcDNA3.1 expression vector (Life Technologies (Carlsbad, Calif.)) carrying the full-length human CD99 cDNA transcript variant 1 as template. The primers were designed to include an additional C-terminal 6×His tag in the protein. The PCR product was gel purified with a QIAquick gel extraction kit (Qiagen (Hilden, Germany)) and subcloned into the pDONR 221 entry vector. The entry clone was then subjected to a recombination reaction with pET104.1-DEST destination vector, an expression vector with a N-terminal BioEase tag. The presence of an insert was confirmed by DNA sequencing.
CD99-ECD was expressed in Escherichia coli BL21 (DE3) cells. A saturated overnight culture of cells was diluted by 20-fold into fresh LB medium containing 100 μg/mL ampicillin. To induce the expression of CD99-ECD, cells were grown to OD600nm 0.5-0.7 at 37° C. and induced by the addition of isopropyl-β-D-thiogalactopyranoside to a final concentration of 1 mmol/L. The cultures were grown for an additional 3 h at 37° C. Cells were harvested by centrifugation at 8,000×g for 15 min, resuspended in 50 mmol/L sodium phosphate buffer, pH 7.4, containing 500 mmol/L NaCl, 10 mmol/L imidazole and 1 Complete EDTA-free protease inhibitor tablet/50 mL (Roche Diagnostics), and lysed by sonication. […] Protein fractions were finally eluted with a linear gradient of imidazole (10 to 1000 mmol/L) in the same buffer. The purity of the protein was assessed by SDS-PAGE followed by Coomassie staining. The eluted fractions were stored at −80° C. for further use. […]

TC-71 ES cells = experiment: Cell viability IC50, TC-71; assay type: cell-based, human; details: TC-71 cells, WST-1, 48 h (FIG. 10B)
A4573 ES cells = experiment: Cell viability IC50 (WST-1), A4573; assay type: cell-based, human; details: WST-1, 48 h (FIG. 10B)
[4] = test system: TC-71, 6647 and RDES ES cells; experiment: Soft agar colony formation assay, ES cells; assay type: cell-based, human; details: dose-dependent
Method: Anchorage-independent growth was determined in 0.33% agarose (Sea-Plaque Agarose, Lonza) with a 0.5% agarose underlay. […] Colonies were counted after 7-12 days.

TC-CD99-shRNA #1 cells = experiment: Soft agar colony formation assay, CD99 knockdown cells; assay type: cell-based, human

| Compound | IC50 [1] [µM] | Kd [2] [µM] | Kd [3] [µM] | IC50 (TC-71 ES cells) [nM] | IC50 (A4573 ES cells) [nM] | colony formation (anchorage-independent growth) [4] | colony formation in CD99 knockdown cells (TC-CD99-shRNA #1 cells) |
| --- | --- | --- | --- | --- | --- | --- | --- |
| C=C(Cl)C(Cl)(CBr)CCC(Br)C(C)(C)Cl (stereo not shown) [NSC662825] | 9 |  |  |  |  |  |  |
| clofarabine-5′-triphosphate |  | 3.7 | 7.6 | 170 | 460 | inhibited | diminished |
